{"source": "patent US8182793B2", "about": "“Sunless tanning products and processes” (Concept Laboratories, priority 2004, dated 2012)", "key": {"[1]": {"assay": "Water activity (aw) measured with Aqualab 3TE instrument", "assay_type": "physicochemical", "details": "for Reduction of water activity compared with other screened materials (in words): additive screening, aqueous solutions", "text": "There is no device that can be put into a product to directly measure the water activity. However, the water activity of a product can be determined, indirectly, from the relative humidity of the air surrounding the sample when the air and the sample are at equilibrium. Therefore, the sample must be in an enclosed space where this equilibrium can take place. Once this occurs, the water activity of the sample and the relative humidity of the air are equal. The measurement taken at equilibrium is called an equilibrium relative humidity or ERH.\nIn practice, water activity can be determined by use of the Aqualab© (Decagon, Inc., Pullman, Wash.) or HygroLab© (Rotronic, Inc., Huntington, N.Y.). For all of the experimental water activity data recorded and detailed in this application, an Aqualab 3T-E instrument with an accuracy of +/−0.003 units and with automatic temperature equilibration (23.7+/−0.2° C.) capability was utilized.\nIn the AquaLab instrument, a sample is equilibrated within the headspace of a sealed chamber containing a mirror, an optical sensor, an internal fan, and an infrared temperature sensor. At equilibrium, the relative humidity of the air in the chamber is the same as the water activity of the sample. A thermoelectric (Peltier) cooler precisely controls the mirror temperature. An optical reflectance sensor detects the exact point at which condensation first appears. A beam of infrared light is directed onto the mirror and reflected back to a photodetector which detects the change in reflectance when condensation occurs on the mirror. A thermocouple attached to the mirror accurately measures the dew-point temperature. The internal fan is for air circulation, which reduces vapor equilibrium time and controls the boundary layer conductance of the mirror surface. Additionally, a thermopile sensor (infrared thermometer) measures the sample surface temperature. Both the dew point and sample temperatures are then used to determine the water activity. During a water activity measurement, the AquaLab repeatedly determines the dew-point temperature until vapor equilibrium is reached. Since the measurement is based on temperature determination, calibration is not necessary, but measuring a standard salt solution checks proper functioning of the instrument. If there is a problem, the mirror is easily accessible and can be cleaned in a few minutes.\nSunless tanning formulations typically contain 3-10% by weight of DHA as the primary tanning agent dissolved in water. DHA is a water soluble sugar, and, as with other sugars or solutes will decrease the water activity as compared to pure water (aw=1.00). Solutes dilute the water, increasing its entropy and therefore lowering its energy state. These two effects combine to lower the total free energy of the water.\nAn arbitrary upper limit of 0.900 for aqueous solutions of additives was set for the screening studies. In other words, any cosmetic or pharmaceutical additive investigated must lower the aw of water from 1.000 to 0.900 or below when tested at a concentration that was judged to be the upper practical limit for inclusion based on safety and general cosmetic acceptability."}, "skin [2]": {"tested_on": "skin", "assay": "Tanning response on forearm skin, visual assessment of color development on a 1-6 point scale", "assay_type": "in vivo, human", "procedure": "Simple aqueous formulations of dihydroxyacetone and sodium lactate were first evaluated for tanning response on skin. The formulations evaluated and the tanning responses obtained are shown in Tables 3 (formulations) and Table 4 (tanning response of Table 3 formulas).\n(§1) An equal amount of each formula (approximately 150 mg.) from Table 3 was applied to 2″×2″ adjacent sections of forearm, allowed to dry and covered with clothing for the duration of the testing. The application areas were visibly the same color prior to treatment with the solutions and this was confirmed via calorimeter readings. Visual assessment of color development was made 24 hours post application using a 1-6 point scale with 1 signifying no color development versus non-treated skin, 3 signifying moderate color development and 6 signifying intensely dark color development. A commercial sunless tanning solution containing 10% DHA was used as a positive control.\nas §1, with “As before, an equal” for “An equal”, “Table 5” for “Table 3”, “via colorimeter” for “via calorimeter”, “24 hours and at 48” for “24”, “development.” for “development. A commercial sunless tanning solution containing 10% DHA was used as a positive control.”\nA control formula containing 10% DHA, 5% butylene glycol and 5% methylsulfonylmethane was used as a positive control. Past studies as outlined in applicants' co-pending application Ser. No. 10/382,868 titled SUNLESS TANNING PRODUCTS AND PROCESSES, filed on Mar."}, "stratum corneum": {"tested_on": "stratum corneum", "assay": "In vivo water binding capacity, Nova Dermal Phase Meter (conductance)", "details": "added to aqueous solutions of DHA", "procedure": "In addition to the water activity screening and the tanning experiments conducted with simple aqueous solutions of DHA, sodium lactate, and glycols, objective instrumental testing for in vivo water binding capacity of these DHA-sodium lactate-glycol solutions was conducted.\nThe Nova Meter measures water content of the top layers of the skin indirectly via conductance measurements."}, "[3]": {"details": "moisture loss figure, Purac citation (Osipow); cited from earlier work"}, "skin [4]": {"tested_on": "skin", "details": "earlier studies of the applicant in prior filings Ser. No. 10/382,868 & 10/694,972; cited from earlier work"}}, "note": "Read-outs that look alike come from different tables or passages of the source."}
{"smiles": "CC(O)C(=O)[O-].[Na+]", "note": "(stereo not drawn) [Sodium Lactate, sodium lactate]", "values": [{"measurement": "Water Activity (aw)", "setting": "[1]; Sodium Lactate 6.0 % w/w", "result": 0.991}, {"measurement": "Water Activity (aw)", "setting": "[1]; Sodium Lactate 12.0 % w/w", "result": 0.944}, {"measurement": "Water Activity (aw)", "setting": "[1]; Sodium Lactate 18.0 % w/w", "result": 0.913}, {"measurement": "Water Activity (aw)", "setting": "[1]; Sodium Lactate 24.0 % w/w", "result": 0.880}, {"measurement": "Water Activity (aw)", "setting": "[1]; Sodium Lactate 30.0 % w/w", "result": 0.840}, {"measurement": "Reduction of water activity compared with other screened materials (in words)", "setting": "[1]", "result": "capable of reducing the water activity to a greater extent than any other material screened"}, {"measurement": "Water activity (Aw)", "setting": "[1]; aqueous solutions at concentrations of 25% w/w or less", "result": "below 0.900"}, {"measurement": "Concentration meeting the screening criterion of reduction of aw to 0.900 or less", "setting": "[1]; read from Table 2", "result": "18-24%"}, {"measurement": "Effect on the tanning response of DHA", "setting": "skin [2]; added to 5% DHA solutions", "result": "enhancement of the tanning response was recorded"}, {"measurement": "Effect on the tanning response of DHA", "setting": "skin [2]; use concentrations of 0.5-5.0%", "result": "Enhance the tanning response of DHA"}, {"measurement": "Water holding capacity of the stratum corneum (moisturizing effect)", "setting": "stratum corneum", "result": "improve the water holding capacity of the stratum corneum"}, {"measurement": "Water-holding capacity", "setting": "[3]", "result": "double the capacity of glycerin"}]}
{"smiles": "O=C1CCC(C(=O)[O-])N1.[Na+]", "note": "(stereo not drawn) [Sodium PCA, sodium pyrrolidone carboxylic acid]", "values": [{"measurement": "Reduction of water activity compared with other screened materials (in words)", "setting": "[1]", "result": "capable of reducing the water activity to a greater extent than any other material screened"}]}
{"smiles": "OCC(O)CO", "note": "[glycerol, reference compound]", "values": [{"measurement": "Lowering of water activity compared with other glycols (in words)", "setting": "[1]; 10% in 10% DHA solution, Table 1", "result": "lower the water activity to a greater extent than the other glycols evaluated"}, {"measurement": "Effect on the tanning response of DHA", "setting": "skin [4]", "result": "somewhat of an inhibitory effect on the tanning response of DHA"}, {"measurement": "Water-holding capacity", "setting": "[3]", "result": "equal water-holding capacity"}]}
{"smiles": "CC(O)C(=O)O", "note": "(stereo not drawn) [lactic acid]", "values": [{"measurement": "Effect on the tanning response of DHA", "setting": "skin [2]; added to 5% DHA solutions", "result": "enhancement of the tanning response was recorded"}, {"measurement": "Water-holding capacity", "setting": "[3]", "result": "equal water-holding capacity"}]}
